According to publication PMC9785280, “Synthesis, Antiproliferative Evaluation and QSAR Analysis of Novel Halogen- and Amidino-Substituted Benzothiazoles and Benzimidazoles” (International Journal of Molecular Sciences, 2022):
“And” between values parts separate entries of the source, which are not always exact repeats. Identical values can stand only once.

Key:
[1] = tested on: THP1 (human monocytic leukemia) cells; assay: MTT antiproliferative assay, THP1; type: cell-based; conditions: for IC50: Homo sapiens, THP-1, 72 h, MTT, mean ± SD of three independent experiments; for SI (BJ) THP1: SI = IC50 BJ / IC50 THP1; for SI (MDCK) THP1: SI = IC50 MDCK1 / IC50 THP1
Description: (§1) The growth inhibition activity was assessed according to the slightly modified procedure performed at the National Cancer Institute, Developmental Therapeutics Program.
(§2) Examined compounds were dissolved in DMSO (1 × 10^−2 M). The experiments were carried out on seven human tumor cell lines and two normal cell lines. The following cell lines were used: HeLa (human cervical adenocarcinoma; purchased from ATCC), CaCo-2 (human colorectal adenocarcinoma), HuT78 (T-cell lymphoma), THP-1 (acute monocytic leukemia), SW620 (colorectal adenocarcinoma, metastatic), MDA-MB-231 (human breast adenocarcinoma), HL60 (promyelocytic leukemia cell line), foreskin fibroblast cells (BJ) and MDCK1 (Madine–Darby canine kidney fibroblast like cells). MDCK1 cells were used between 24 and 26 passages.
(§3) Adherent cells were cultured in the Dulbecco’s modified Eagle medium—DMEM (Gibco, EU) supplemented with 10 % heat-inactivated fetal bovine serum (FBS, Gibco, EU), 2 mM glutamine, and 100 U/0.1 mg penicillin/streptomycin. Cells on suspension were cultured in RPMI 1640 (Gibco, EU) medium supplemented with 10 % FBS (Gibco, EU), 2 mM glutamine, 1 mM sodium pyruvate, 10 mM HEPES. Cells were grown in humidified atmosphere under the conditions of 37 °C/5% of CO2 gas in the CO2 incubator (IGO 150 CELLlife^TM, JOUAN, Thermo Fisher Scientific, Waltham, MA, USA). A erythrosin B (Sigma-Aldrich, St. Louis, MO, USA) dye exclusion method was used to assess cell viability before plating.
(§4) Adherent cells (HeLa, CaCo-2, MCF-7 and MDCK-1) were plated in 96-well flat bottom plates (Greiner, Frickenhausen, Austria) at a concentration of 2 × 10^4 cells/mL. Suspension cells (THP-1 and HuT78) were plated in 96-well microtiter plates (Sarstead, Newton, USA) at a concentration of 1 × 10^5 cells/mL. Twenty-four hours later, cells were treated with test agents in […] 10-fold dilutions ([…] to 10^−4 M) and incubated for further 72 h. Working dilutions were freshly prepared on the day of testing. The solvent was also tested for eventual inhibitory activity by adjusting its concentration to be the same as in working concentrations. After 72 h of incubation, the cell growth rate was evaluated by performing the MTT assay, which detects dehydrogenase activity in viable cells. For this purpose, upon completion of the incubation period, growth medium was discarded and 50 μL of MTT was added to each well at a concentration of 5 mg/mL. After four hours of incubation at 37 °C, water insoluble MTT-formazan crystals were dissolved in 150 μL of dimethyl-sulfoxide (DMSO) for adherent cells, and in 10 % SDS with 0.01 M/L HCl for cells grown in suspension. The absorbance (OD, optical density) was measured on a microplate reader (iMark, BIO RAD, Hercules, CA, USA) at 595 nm.
(§5) Percent of life cells was calculated as follows: % = OD (sample)–OD (background)/OD (control)–OD (background) × 100.
(§6) Optical density (OD) of background for adherent cells is the OD of MTT solution and DMSO; OD (background) for suspension cells is OD of the culture medium with MTT and 10% SDS with 0.01 M/L HCl; OD (control) is the OD of the cells growth without tested compounds.
(§7) Calculation of GI50 value curves and QC analysis is performed by using the Excel tools and GraphPadPrism software (La Jolla, CA), v. 5.03. Briefly, individual concentration effect curves are generated by plotting the logarithm of the concentration of tested compounds(X) vs. corresponding percent inhibition values (Y) using least squares fit. The best fit GI50 values are calculated using Log (inhibitor) versus normalized response—Variable slope equation, where Y Ľ 100/(1 ţ 10 ((LogIC50 _ X) * HillSlope)). QC criteria parameters (Z0, S:B, R2, HillSlope) were checked for every GI50 curve.

[2] = tested on: HL60 (promyelocytic leukemia) cells; assay: MTT antiproliferative assay, HL60; type: cell-based, human; conditions: for IC50: Homo sapiens, HL-60, 72 h, MTT, mean ± SD of three independent experiments; for SI (BJ) HL60: SI = IC50 BJ / IC50 HL60; for SI (MDCK) HL60: SI = IC50 MDCK1 / IC50 HL60
Description: as §1, §2, §3, §4, §5, §6, §7

[3] = tested on: HeLa (cervical adenocarcinoma) cells; assay: MTT antiproliferative assay, HeLa; type: cell-based; conditions: Homo sapiens, 72 h, mean ± SD of three independent experiments
In short: (§8)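 Following a modified NCI DTP protocol, cells were incubated with compounds (five 10-fold dilutions, 10^−7–10^−4 M) for 72 h at 37 °C. Viable cells were then quantified by MTT (4 h, A595).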

[4] = tested on: SW620 (colorectal adenocarcinoma, metastatic) cells; assay: MTT antiproliferative assay, SW620; type: cell-based, human; conditions: for IC50: Homo sapiens, SW-620, 72 h, MTT, mean ± SD of three independent experiments, read-out: IC50 (µM) SW620
Description: as §1, §2, §3, §4, §5, §6, §7

[5] = tested on: HuT78 (T-cell lymphoma) cells; assay: MTT antiproliferative assay, HuT78; type: cell-based, human; conditions: for IC50: Homo sapiens, HuT78, 72 h, 72 h, MTT, mean ± SD of three independent experiments; for SI (MDCK) HuT78: SI = IC50 MDCK1 / IC50 HuT78
In short: as §8

[6] = tested on: MDA-MB-231 (human breast adenocarcinoma) cells; assay: MTT antiproliferative assay, MDA-MB-231; type: cell-based; conditions: for IC50: Homo sapiens, MDA-MB-231, 72 h, MTT, mean ± SD of three independent experiments
Description: as §1, §2, §3, §4, §5, §6, §7

HuT78 cells = assay: Cell cycle analysis (PI, flow cytometry); type: cell-based, human; conditions: HuT78, 5 µM, 24 h, versus untreated cells
Description: The HuT78 cells were plated in 6-well plates at a concentration of 5 × 10^5 cells per well and treated 24 h and 48 h with selected compounds 36c, 42a, 42c, 45a, 45b, 45c and 46c at a concentration of 5 μM. After drug treatment, the cells were fixed with ice-cold 70% ethanol in phosphate-buffered saline (PBS) and incubated with 0.3 μg/mL propidium iodide for 30 min at room temperature. Before being analyzed by flow cytometry (BD FACSCalibur, Becton Dickinson, San Jose, CA, SAD), samples were treated with 0.4 μg/mL RNase A for 5 min at room temperature. The resultant DNA histograms were generated and analyzed using FlowJo 7.6 software (Treestar, Inc, Ashland, OR, USA). Experiments were done in duplicate and the quantitative data are reported as average value ± standard deviation. Comparisons between control (non-treated) and treated groups were done using one-way analysis of variance (ANOVA) with Tukey–Kramer’s post hoc test with MedCalc statistical program. P-value less than 0.05 was considered statistically significant.

[7] = tested on: MDCK1 (Madin–Darby canine kidney) cells; assay: MTT antiproliferative assay, non-tumor MDCK1 cells; type: cell-based; conditions: Canis lupus familiaris, MDCK1, 72 h, mean ± SD of three independent experiments, normal cells
In short: as §8

human fibroblasts (BJ) = assay: MTT antiproliferative assay, normal BJ fibroblasts; type: cell-based; conditions: for IC50: Homo sapiens, Fibroblast, 72 h, MTT, mean ± SD of three independent experiments, normal cells
In short: as §8

[8] = tested on: CaCo-2 (colon adenocarcinoma) cells; assay: MTT antiproliferative assay, CaCo-2; type: cell-based, human; conditions: Homo sapiens, Caco-2; 72 h, MTT, mean ± SD of three independent experiments
In short: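 CaCo-2 cells, plated at 2 × 10^4 cells/mL in DMEM with 10 % FBS at 37 °C/5% CO2, were treated 24 h later with five 10-fold dilutions (10^−7 to 10^−4 M) for 72 h. Viability was measured by MTT (4 h, formazan dissolved in DMSO, OD 595 nm) against background and untreated controls. GI50 came from log-concentration versus percent-inhibition fits.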

MCF-7^wt cells = tested on: MCF-7^wt cells; parameters: method as in PMID 23623491; conditions: estrogen receptor-positive MCF-7^wt cells ref 17,18; cited from earlier work

| SMILES | IC50 [1] [µM] | SI (BJ) THP1 [1] | SI (MDCK) THP1 [1] | IC50 [2] [µM] | SI (BJ) HL60 [2] | SI (MDCK) HL60 [2] | IC50 [3] [µM] | IC50 [4] [µM] | IC50 [5] [µM] | SI (MDCK) HuT78 [5] | IC50 [6] [µM] | G2/M phase cell fraction (HuT78 cells) | IC50 [7] [µM] | IC50 (human fibroblasts (BJ)) [µM] | IC50 [8] [µM] | SI (MDCK) SW620 ([4]; SI = IC50 MDCK1 / IC50 SW620) | SI (BJ) HuT78 ([5]; SI = IC50 BJ / IC50 HuT78) | SI (MDCK) MDA-MB-231 ([6]; SI = IC50 MDCK1 / IC50 MDA-MB-231) | toxicity to normal BJ cells (in words) (human fibroblasts (BJ)) | IC50 (MCF-7^wt cells) [µM] |
| --- | --- | --- | --- | --- | --- | --- | --- | --- | --- | --- | --- | --- | --- | --- | --- | --- | --- | --- | --- | --- |
| Fc1cc(-c2nc3ccc(C4=NCCCN4)cc3[nH]2)ccc1OCc1cn(Cc2ccccc2)nn1 [45b] | 2.5 ± 1.5 | 32.84 | 18.44 | 30 ± 12.3 | 2.74 | 1.54 | > 100 | > 100 | 5.5 ± 4 | 8.36 | > 100 | decrease in G2/M phase | 46.1 ± 14.8 | 82.1 ± 0.4 | > 100 | – | – | – | – | – |
| COc1cc(-c2nc3ccc(C4=NCCCN4)cc3[nH]2)ccc1OCC(=O)c1ccccc1 [42c] | 19.7 ± 2.4 | 1.68 | 5.13 | 19.5 ± 0.8 | 1.68 | 5.13 | > 100 | 29.8 ± 3 | 24.9 ± 4.6 | 4.0 | 38.9 ± 4.2 | decrease in G2/M phase | > 100 | 32.8 ± 4.1 | > 100 | 3.36 | 1.32 | 2.57 | – | – |
| COc1cc(-c2nc3ccc(C4=NCCCN4)cc3[nH]2)ccc1OCc1cn(Cc2ccccc2)nn1 [45c] | > 100 | – | – | 25.1 ± 16 | – | 2.73 | > 100 | > 100 | 4.1 ± 3.3 | 16.7 | > 100 | decrease in G2/M phase | 68.5 ± 22.7 | > 100 | > 100 | – | – | – | not toxic | – |
| c1ccc(Cn2cc(COc3ccc(-c4nc5ccc(C6=NCCCN6)cc5[nH]4)cc3)nn2)cc1 [45a] | – | 69.5 and 70 | 125 | 48.1 ± 16.4 | 1.15 | 2.07 | > 100 | > 100 | 4.8 ± 3.6 | 20.83 | > 100 | decrease in G2/M phase | > 100 | – | > 100 | – | – | – | – | – |
| Nc1ccc(-c2nc3ccccc3s2)cc1 [CJM-126] | – | – | – | – | – | – | – | – | – | – | – | – | – | – | – | – | – | – | – | < 0.001 |
